Like-named read-outs stand apart in the source and are kept apart here.
How the values were obtained:
[1] = in vitro; design: species or system CCD841, HEK293; details: human, hb2 cells, read-out: HB-2 Cells Viability (%)
[2] = in vitro; design: species or system HB2, HEK293; details: human, ccd841 cells
[3] = target: T1, OTUB2 (OTUB2A) (Homo sapiens, UniProt Q96DC9); design: Intact protein LC/MS covalent labelling, fragments in pools of five, 200 uM each, 4 °C; details: 24 h, 4 °C, pool of five; 200 µM; covalent
T1 construct: full length residues 1-234, E. coli BL21(DE3)-R3, His tag removed by TEV, construct 27312 Da
T1 sequence (Q96DC9 1-234): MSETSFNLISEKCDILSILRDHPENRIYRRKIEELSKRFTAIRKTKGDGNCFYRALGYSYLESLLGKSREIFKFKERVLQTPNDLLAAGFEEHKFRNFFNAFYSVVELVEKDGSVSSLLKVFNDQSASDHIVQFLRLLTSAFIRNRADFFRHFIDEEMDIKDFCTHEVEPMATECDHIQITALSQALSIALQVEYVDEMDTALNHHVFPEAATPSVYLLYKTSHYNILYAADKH
Description: (§1) Incubations were performed at 200 μM for each compound and 2 μM of protein (10 μM for BSA) for 24 h at 4 °C with moderate shaking. Incubation buffers varied among proteins (PBS pH 7.4 for QSOX1 and BSA; 10 mM HEPES pH 7.5, 0.3 M NaCl, 0.5 mM TCEP for PCAF, UPS8, and NUDT7; […]; 10 mM Na2HPO4 pH 7.5 100 mM NaCl 5 mM β-mercaptoethanol for NV3CP; 20 mM Na phosphate pH 7.5 for NNMT; […]. The reaction was stopped by quenching with formic acid, 0.4% final concentration. Each protein was incubated with the electrophilic library in pools of five compounds per well. The pool’s composition maximized the difference in mass between fragments in the same well. Incubations were performed with each fragment at 200 μM, for 24 h at 4 °C, to allow the screening of proteins that are not stable for long time periods at higher temperatures. Following incubation, we used intact protein [compound left out] chromatography/mass spectrometry (LC/MS) to identify the fragments and quantify their labeling (Figure 3A). […] There was good agreement between the percent of labeling of NUDT7 by 100 random individual compounds and that obtained in pools of five (R^2=0.78; Figure S6 and Data set 2 in the Supporting Information).

[4] = target: T2, NUDT7 (Homo sapiens, UniProt P0C024); design: Intact protein LC/MS covalent labelling, fragments in pools of five, 200 uM each, 4 °C; details: 24 h, 4 °C, pool of five; 200 µM; covalent
T2 construct: residues 14-235, E. coli, pNIC28-Bsa4, N-terminal His6 tag removed by TEV, construct 26672 Da
Description: as §1

[5] = target: T3, BSA (Bos taurus, UniProt P02769); design: Intact protein LC/MS covalent labelling, fragments in pools of five, 200 uM each, 4 °C; details: 24 h, 4 °C, pool of five; 200 µM; covalent
T3 construct: gene ALB
Description: as §1

[6] = target: T4, PCAF (Homo sapiens, UniProt Q92831); design: Intact protein LC/MS covalent labelling, fragments in pools of five, 200 uM each, 4 °C; details: 24 h, 4 °C, pool of five; 200 µM; covalent
T4 construct: gene KAT2B
Description: as §1

[7] = in vitro; design: species or system HB2, CCD841; details: human, hek293 cells

T4 sequence (Q92831 whole entry, the tested form may be a part): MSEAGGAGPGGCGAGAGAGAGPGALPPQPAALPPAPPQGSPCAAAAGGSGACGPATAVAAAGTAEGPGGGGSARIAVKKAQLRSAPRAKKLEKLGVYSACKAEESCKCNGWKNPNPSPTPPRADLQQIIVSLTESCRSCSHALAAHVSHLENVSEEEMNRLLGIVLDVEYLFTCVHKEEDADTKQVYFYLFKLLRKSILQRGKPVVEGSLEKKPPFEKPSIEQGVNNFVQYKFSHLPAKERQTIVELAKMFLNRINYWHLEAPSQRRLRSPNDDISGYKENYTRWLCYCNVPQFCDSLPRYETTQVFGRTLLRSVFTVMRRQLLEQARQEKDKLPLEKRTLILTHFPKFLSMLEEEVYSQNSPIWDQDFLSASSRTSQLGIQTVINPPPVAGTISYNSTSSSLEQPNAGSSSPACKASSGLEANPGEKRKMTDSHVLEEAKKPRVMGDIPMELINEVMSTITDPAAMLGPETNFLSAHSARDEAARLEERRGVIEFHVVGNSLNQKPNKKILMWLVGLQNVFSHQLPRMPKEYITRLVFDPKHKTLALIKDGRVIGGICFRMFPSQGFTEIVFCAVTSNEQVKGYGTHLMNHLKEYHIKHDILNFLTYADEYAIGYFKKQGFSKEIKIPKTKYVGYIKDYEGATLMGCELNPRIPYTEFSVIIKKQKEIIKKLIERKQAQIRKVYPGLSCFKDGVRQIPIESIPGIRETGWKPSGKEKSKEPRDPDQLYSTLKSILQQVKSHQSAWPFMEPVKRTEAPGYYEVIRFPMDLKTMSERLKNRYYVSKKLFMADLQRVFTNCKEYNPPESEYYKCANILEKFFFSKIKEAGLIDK
T2 sequence (P0C024 14-235): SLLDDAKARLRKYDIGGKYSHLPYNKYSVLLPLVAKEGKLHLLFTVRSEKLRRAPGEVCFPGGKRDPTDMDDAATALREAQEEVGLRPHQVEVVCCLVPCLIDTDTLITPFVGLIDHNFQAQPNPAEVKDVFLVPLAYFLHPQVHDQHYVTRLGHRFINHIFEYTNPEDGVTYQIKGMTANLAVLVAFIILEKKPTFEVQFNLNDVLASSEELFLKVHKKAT
T3 sequence (P02769 whole entry, the tested form may be a part): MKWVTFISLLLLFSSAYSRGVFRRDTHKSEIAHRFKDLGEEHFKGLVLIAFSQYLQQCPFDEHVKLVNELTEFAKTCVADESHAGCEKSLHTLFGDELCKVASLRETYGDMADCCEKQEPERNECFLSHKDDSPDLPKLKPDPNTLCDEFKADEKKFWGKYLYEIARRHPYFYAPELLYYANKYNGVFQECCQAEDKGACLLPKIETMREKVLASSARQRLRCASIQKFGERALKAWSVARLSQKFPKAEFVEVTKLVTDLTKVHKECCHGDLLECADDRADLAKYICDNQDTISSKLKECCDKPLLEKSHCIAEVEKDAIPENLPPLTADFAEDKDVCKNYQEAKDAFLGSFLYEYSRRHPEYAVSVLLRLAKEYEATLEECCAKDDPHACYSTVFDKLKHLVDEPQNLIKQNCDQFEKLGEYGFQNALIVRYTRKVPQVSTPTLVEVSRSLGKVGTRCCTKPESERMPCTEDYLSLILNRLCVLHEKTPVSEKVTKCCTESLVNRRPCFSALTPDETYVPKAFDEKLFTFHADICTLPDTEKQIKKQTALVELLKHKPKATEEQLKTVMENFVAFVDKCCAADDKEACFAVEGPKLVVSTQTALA

Row | SMILES | OTUB2 [3] | NUDT7 [4] | BSA [5] | PCAF [6] | viability at 48 h, 10 µM [1] [%] | viability at 48 h, 10 µM [2] [%] | viability at 48 h, 10 µM [7] [%]
1 | CC(=O)Nc1cccc(NC(=O)CCl)c1 [PCM-0102172] | 0 | 0 | 0 | 0 | 35.9 | 53.4 | 4.7
2 | Cc1ccc(NC(=O)CCl)cc1S(N)(=O)=O [PCM-0102177] | 0.27 | 0.1 | 0 | 0 | 8.9 | 28.2 | 1.4
3 | CN(C(=O)CCl)C1CCS(=O)(=O)C1 (stereo not drawn) [PCM-0102178] | 0 | 0 | 0 | 0 | 56.9 | 72.1 | 31.5
4 | Cc1c(C#N)c(NC(=O)CCl)n(C2CCCC2)c1C [PCM-0102183] | 0 | 0.28 | 0 | 0 | 23.9 | 56.1 | 9.1
5 | Cc1cccc(N2CCN(C(=O)CCl)CC2)c1.Cl [PCM-0102185] | 0 | 0.05 | 0 | 0 | 13.1 | 65.7 | 35.9
6 | CCN(C(=O)CCl)c1nc2ccccc2s1 [PCM-0102186] | 0 | 0.33 | 0 | 0 | 69.7 | 16.1 | 69.9
7 | O=C(CCl)N1CCCc2cc([N+](=O)[O-])ccc21 [PCM-0102188] | 0.12 | 0.09 | 0 | 0 | 19.6 | 32.3 | 46.6
8 | CC(NC(=O)CCl)c1cccc(Cl)c1 (stereo not drawn) [PCM-0102190] | 0.37 | 0.42 | 0 | 0 | 69.6 | 73.2 | 49.3
9 | O=C(CCl)NCc1ccc(F)cc1 [PCM-0102192] | 0.31 | 0 | 0 | 0 | 86.9 | 76.1 | 77.8
10 | O=C(CCl)N1CCN(S(=O)(=O)c2c(F)cccc2F)CC1 [PCM-0102201] | 0 | 0 | 0 | 0 | 9.5 | 57.6 | 11.1
11 | CCC1(C)NC(=O)N(NC(=O)CCl)C1=O (stereo not drawn) [PCM-0102205] | 0 | 0 | 0 | 0 | 96.9 | 85.3 | 88

Further lines, with some results ahead:

Row | OTUB2 [3] | NUDT7 [4] | BSA [5] | PCAF [6] | SMILES | viability at 48 h, 10 µM [1] [%] | viability at 48 h, 10 µM [2] [%] | viability at 48 h, 10 µM [7] [%]
12 | 0 | 0 | 0 | 0 | COc1ccccc1N1CCN(C(=O)CCl)CC1.Cl [PCM-0102173] | 44.1 | 76.9 | 58.2
13 | 0.25 | 0 | 0 | 0 | O=C(CCl)NCc1cccc(Cl)c1 [PCM-0102174] | 83.4 | 79.9 | 74.3
14 | 0.39 | 0.13 | 0.15 | 0 | Cc1cc(NC(=O)CCl)ccc1N1CCCC1 [PCM-0102175] | 10.2 | 45.1 | 2.9
15 | 0.55 | 0.16 | 0.24 | 0 | CC(NC(=O)CCl)c1cccs1 (stereo not drawn) [PCM-0102180] | 93.5 | 78.5 | 75.1
16 | 0 | 0 | 0 | 0 | O=C(CCl)Nc1cccc(-c2nnc3n2CCCCC3)c1 [PCM-0102181] | 51.2 | 73.2 | 39.2
17 | 0 | 0 | 0 | 0 | O=C(CCl)Nc1nnc(C2CC2)o1 [PCM-0102187] | 106 | 114 | 97.2
18 | 0 | 0.09 | 0 | 0 | C=CC(=O)Nc1ccc(Br)cc1 [PCM-0102191] | 91.3 | 88.9 | 65.6
19 | 0 | 0 | 0 | 0 | O=C(CCl)N1CCN(S(=O)(=O)c2ccc3c(c2)CCC3)CC1 [PCM-0102193] | 2.7 | 20.9 | 2.8
20 | 0 | 0 | 0 | 0 | O=C(CCl)Nc1ccc2c(c1)C(=O)c1ccccc1C2=O [PCM-0102194] | 1.4 | 13.7 | 0.7
21 | 0 | 0 | 0 | 0 | O=C(CCl)NC(=O)c1ccco1 [PCM-0102195] | 98 | 109 | 87.3
22 | 0.14 | 0.2 | 0 | 0 | Cc1ccc(NC(=O)CCl)c(Br)c1 [PCM-0102196] | 49.2 | 87.6 | 45.5
23 | 0 | 0 | 0 | 0 | Cc1cc(NC(=O)CCl)on1 [PCM-0102197] | 74.3 | 87.9 | 68.5
24 | 0 | 0.11 | 0 | 0 | COC(=O)c1c(NC(=O)CCl)sc2c1CCCCC2 [PCM-0102200] | 49.5 | 80.8 | 21.8
25 | 0 | 0 | 0 | 0 | Cc1sc(NC(=O)CCl)c(C#N)c1C [PCM-0102202] | 32.8 | 55.2 | 14.4
26 | 0 | 0 | 0 | 0 | NC(=O)C1CCCCN1C(=O)CCl (stereo not drawn) [PCM-0102203] | 79.7 | 75.3 | 50.7
27 | 0 | 0 | 0 | 0 | COC(=O)c1ccc(NC(=O)CCl)cc1 [PCM-0102204] | 22.5 | 56.2 | 3.8
